The term Ki denotes the equilibrium dissociation constant of an inhibitor or competing ligand from its target.

The values below come from US10207991B2, “Isoindoline compositions and methods for treating neurodegenerative disease” (priority 2014, dated 2019).

One series has as its target Sigma-2 receptor (Rattus norvegicus (Rat), UniProt Q5U3Y7). The experiment in a line: Sigma-2 receptor competitive radioligand binding assay. To be noted: read-out: Sigma-2 Receptor Affinity, Ki.
Series [1] has as its system caspase-3 activation in tumor cells. To be noted: cited from earlier work.
The subject of another series is neurons. To be noted: 24 hours; cited from earlier work.
Series [2] has as its system caspase-3 activation in neurons. To be noted: cited from earlier work.
Series [3] has as its system MDA-MB-435 or MDA-MB231 or SKOV-3 cells. Nature of the series: Tumor cell viability (MTS) assay. It is filed as cell-based. As for the experimental part: The cytotoxicity of test compounds is determined using the CellTiter96 Aqueous One Solution Assay (Promega, Madison, Wis.). Briefly, MDA-MB-435 or MDA-MB231 or SKOV-3 cells were seeded in a 96-well plate at a density of 2000 cells/well on the day prior to treatment with sigma-2 receptor selective ligands. […] The plate is read at 490 nm in a Victor3 plate reader (PerkinElmer Life and Analytical Sciences, Shelton, Conn.). The EC^50 value, defined as the concentration of the sigma ligand required to inhibit cell viability by 50% relative to untreated cells, is determined from the dose response curve for each cell line. Siramesine is accepted as an agonist.

Series [4] can be described thus: Mouse liver microsome (MLM) stability. It counts as in vitro ADME. As for the experimental part: A first pharmacokinetic study was performed in microsomes of mice mouse liver microsomes, MLM) by a commercial contract research organization. The studies were performed according to Obach, R. S et al. (1997) J. Pharmacol. Exp. Ther., 283: 46-58, which is incorporated herein by reference.
On the technique in general: Liver microsomes are vesicles of endoplasmic reticulum, rich in cytochrome P450 enzymes.

Entries after “also recorded” stand apart in the source; their conditions may differ.

Sequence of Sigma-2 receptor (Q5U3Y7 whole entry): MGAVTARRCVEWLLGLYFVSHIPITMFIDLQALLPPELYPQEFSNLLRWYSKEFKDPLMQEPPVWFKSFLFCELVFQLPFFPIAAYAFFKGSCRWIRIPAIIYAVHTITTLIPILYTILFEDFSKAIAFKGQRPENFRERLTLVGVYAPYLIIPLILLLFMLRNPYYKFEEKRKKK
Protocol for Sigma-2 receptor: Radioligand binding assays for Sigma-1 receptors and Sigma-2 receptors were carried out by a commercial contract research organization. For Sigma-1 binding, various concentrations of test compounds from 100 μM to 1 nM were used to displace 8 nM [^3H](+)pentazocine from endogenous receptors on Jurkat cell membranes (Ganapathy M E et al. 1991, J Pharmacol. Exp. Ther. 289:251-260). 10 μM Haloperidol was used to define non-specific binding. For Sigma-2 receptors various concentrations of test compounds from 100 μM to 1 nM were used to displace 5 nM [^3H] […] (Bowen W D, et al. 1993, Mol. Neuropharmcol 3:117-126). 10 μM Haloperidol was used to define non-specific binding. […] Radioactivity on the dried filter discs was measured using a liquid scintillation analyzer (Tri-Carb 2900TR; PerkinElmer Life and Analytical Sciences). The displacement curves were plotted and the Ki values of the test ligands for the receptor subtypes were determined using GraphPad Prism (GraphPad Software Inc., San Diego, Calif.). The percentage specific binding was determined by dividing the difference between total bound (disintegrations per minute) and nonspecific bound (disintegrations per minute) by the total bound (disintegrations per minute).
The affinity of candidate sigma-2 ligand compounds at sigma-1 and sigma-2 receptors was also determined by displacement of different known labeled sigma-2 or sigma-1 ligands. […]

As to `CC(C)(C)Oc1cc(CCC(C)(C)N2Cc3cccc(C(=O)O)c3C2)ccc1O` [compound 75], on Sigma-2 receptor, the Ki is greater than 10 µM.

Consider `COc1cc2c(cc1OC)CN(CCCCNC(=O)c1cc(C)ccc1OC)CC2` [RHM-1, N-[4-(3,4-dihydro-6,7-dimethoxyisoquinolin-2(1H)-yl)butyl]-2-methoxy-5-methylbenzamide], for which, in series [1], the caspase-3 activation entry is “do not induce caspase-3 activity” and the “inhibition of caspase-3 activation” value was “inhibits the activation”. Further, the “nuclear morphology / nuclear intensity compared to vehicle” value with neurons is reported as “do not decrease nuclear intensity”. Besides, in series [2], the “block of caspase-3 activation by agonist SV-119” value is on record as “not able to block activation” and the caspase-3 activation result is recorded as “do not induce caspase-3 activity”.

With `COc1ccc(C)cc1NC(=O)OC1C[C@H]2CCC[C@@H](C1)N2CCCCCCN` (stereo partly drawn) [SV-119], the caspase-3 activation entry in series [1] and in series [2] was “activate caspase-3” in each case. In addition, in series [3], the Action result was “Full agonist (If the EC50s of a sigma-2 ligand test compound is less than 2 fold of EC50 of siramesine, this sigma-2 ligand test compound is considered as an agonist)”. Moreover, in the series with neurons, the “nuclear morphology / nuclear intensity compared to vehicle” value is reported as “cause significant abnormal nuclear morphology”.

`Fc1ccc(-n2cc(CCCCN3CCC4(CC3)OCc3ccccc34)c3ccccc32)cc1` [Siramesine]: the caspase-3 activation result in series [1] was “activate caspase-3; also recorded: induces caspase-3 activity”; in series [2] it was “activate caspase-3”. In the series on neurons, the “nuclear morphology / nuclear intensity compared to vehicle” value is listed as “cause significant abnormal nuclear morphology”.

On to `COc1cc(CC[C@@H](C)N2Cc3cccc(F)c3C2)ccc1OCCO` [compound 51], for which the “Mouse liver microsomes, MLM t½” value in series [4] came to 1.1 h.

As for `CC(C)Oc1cc(CC[C@@H](C)N2Cc3ccc(S(C)(=O)=O)cc3C2)ccc1O` [compound 69], in series [4], the “Mouse liver microsomes, MLM t½” value turned out to be 1.25 h.
